Earlier results on 3 compounds are cited in patent US6486186B2, “Thiazole compounds as cyclic AMP-specific phosphodiesterase inhibitors and method of using the same” (ICOS Corporation, priority 1999, dated 2002).

The conditions of series [1]: in vivo.
The next series relates to recombinant human PDE4. The settings on record: literature value; read-out: reported IC50 with respect to inhibiting recombinant human PDE4.

Regarding `COc1ccc([C@@H]2CNC(=O)C2)cc1OC1CCCC1` (single isomer, unassigned) [(−)-enantiomer of rolipram], in series [1], the “emetic potential relative to the (+)-enantiomer (S-rolipram)” value is on record as “about ten-fold more emetic”.

As for `COc1ccc(C2CNC(=O)C2)cc1OC1CCCC1` (stereo not drawn) [Rolipram], the IC50 (commonly the concentration needed to halve the response being measured) with recombinant human PDE4 is approximately 200 nM.

`COC(=O)N1CC(c2ccc(OC)c(OC3CCCC3)c2)C(C)(C(C)=O)C1` (stereo not drawn) [structural formula (I)]: the IC50 with recombinant human PDE4 was approximately 2 nM.
